In brackets after ≈: the same amount, converted by molar mass. Several values for one entry are separate records, joined by “and”; a condition that tells them apart may be missing. Equal values may be shown once. Entries after “also recorded” stand apart in the source; their conditions may differ. Where a name gives a salt, the structure may show the parent alone. Read-outs that look alike come from different tables or passages of the source.
What was measured:
Aureobasidium pullulans = assay: dish cultures, growth inhibition of A. pullulans (Czapek-Dox agar); type: cell-based; settings: 360 h
Procedure: Laboratory experiments were carried out by making (1) dish cultures with Czapek-Dox agar at a temperature of 23° C. and (2) mini-board tests at a temperature of 23° C. and a humidity of 100%. The dish cultures had been inoculated with spores of the fungus Aureobasidium pullulans. This is a known fungus causing sapstain. In the mini-board tests, the inoculation was carried out using a spore suspension which contained a mixture of the spores of sapstain fungi. The sapstain fungi used were Aureobasidium pullulans, Sclerophoma entoxylina and Ceratocystis pilifera. […]
In dish cultures with A. pullulans fungus it was observed that growth was inhibited at, for example, the following concentrations of the control agents studied within a culture period of 15 days:
Using certain mixtures of these control agents, fungus growth could be inhibited at the following concentrations, for example: […]

sapstain fungi [1] = assay: miniboard test, sapstain (Examples 8-12); settings: for Growth of fungi, Sapstain (score): Example 12, pH 10
Procedure: (§1) Laboratory experiments were carried out by making (1) dish cultures with Czapek-Dox agar at a temperature of 23° C. and (2) mini-board tests at a temperature of 23° C. and a humidity of 100%. The dish cultures had been inoculated with spores of the fungus Aureobasidium pullulans. This is a known fungus causing sapstain. In the mini-board tests, the inoculation was carried out using a spore suspension which contained a mixture of the spores of sapstain fungi. The sapstain fungi used were Aureobasidium pullulans, Sclerophoma entoxylina and Ceratocystis pilifera.
(§2) The other half of the miniboards was dipped into the control agent solutions for 20 seconds. […] The pH was 8.5-10.0. The board were allowed to drip and they were inoculated with the above mentioned spore suspensions of sapstain and mold fungi. The boards were stored at 100% relative humidity (R.H.) at 20° C. They were inspected and visually rated after 3 weeks incubation time.
(§3) 1--some traces of fungal growth
(§4) 2--several colonies of growing fungi
(§5) 3--25% of the surface discoloured
(§6) 4--50% of the surface discoloured
(§7) The miniboards were inspected and rated after 3 weeks incubation time at 20° C. and 100% R.H. Results are presented in tables 3 and 4 as the average score of ten replicate samples.
(§8) Results are presented in tables 5-7 as the average score of ten replicate samples.
(§9) The miniboards were treated as in foregoing examples but the treatment solution contained dioctyldimethylammonium chloride instead of trimethylcocoammonium chloride.

mold fungi [2] = assay: miniboard test, molds (surface mildew) (Examples 8-12); settings: for Growth of fungi, Freshly cut pine sapwood, Molds (score): average of ten replicates; for synergism with trimethylcoco ammonium chloride (in words): mold tests, Examples 8-11; for Growth of fungi, Molds (score): Example 12, pH 10
Procedure: (§10) Cladosporium sphaerospermum
as §2, §3, §4, §5, §6, §7, §8, §9

[3] = known organic acids used as control agents; cited from earlier work
surface mildew = assay: mini-board test on timber, surface mildew; settings: Example 2; 1.2% active ingredient in wetting solution, pH 8.4, fresh timber, 23° C., 1 month; 0-5 very good, 6-10 average, 11-15 poor, 16-20 very poor
Procedure: as §1
(§11) In the mini-board tests it was studied whether the toxic effect is retained on the surface of timber. The dimensions of the mini-boards were 10×50×300 mm. They had been made from newly felled pine. The pieces were immersed for 20 s into the solutions studied and were then weighed and inoculated. The control pieces were immersed into pure water. Some of the test pieces were dried for 1 month at 23° C. at a humidity of 100% in dishes covered with a plastic sheet, whereafter the sapstain and the mildew growth in them were assessed visually.
(§12) The control agent composition presented in Test 4 of Example 3 was modified in such a way that part of the dodecylbenzyldimethylammonium chloride was replaced with technical dialkyldimethylammonium chloride which contained, bound with nitrogen, C8 -C18 alkyl groups as follows: […], C10 -9%, C12 -47%, C14 -18%, C16 -8% and C18 -10%.

[4] = tested on: sapstain fungi (Aureobasidium pullulans, Sclerophoma entoxylina, Ceratocystis pilifera); assay: mini-board test on timber, sapstain; settings: for Grading points, Sapstain: Example 2, 1.2% active ingredient in wetting solution, pH 8.4, fresh timber, 23° C., 1 month, 0-5 very good, 6-10 average, 11-15 poor, 16-20 very poor; for synergism with Na-2-ethylhexanoate (in words): examples 2, 5, 6 and 12
Procedure: as §1, §11, §12

[5] = tested on: sapstain fungi (Aureobasidium pullulans, Sclerophoma entoxylina, Ceratocystis pilifera); assay: mini-board one-side immersion test, sapstain (DDC / 2-EHA-Na); settings: 3 weeks, 23° C.
Procedure: as §1
[…] The immersion period was 20 s. The boards were allowed to drip, and they were inoculated with the above-mentioned spore suspension of sapstain fungi.

sapstain fungi [6] = assay: miniboard test, sapstain (Examples 8-12); settings: TABLE 2; […] active ingredients, pH 8.5-10.0, 5 weeks, 20° C., 100% R.H.; average of ten replicates
[7] = tested on: mildew fungi (Cladosporium sphaerospermum, Penicillum Sp., Aspergillus amstelodami); assay: mini-board one-side immersion test, mildew growth (DDC / 2-EHA-Na); settings: Example 6; dry matter of wetting solution 1.5%
Procedure: The concentration of the solution was 2.5%. The immersion period was 20 s. The boards were allowed to drip, and they were inoculated with the above-mentioned spore suspension of sapstain fungi.
The following experiment was carried out as in Example 5, but a suspension of spores of the mildew fungi listed below was used for the inoculations:
as §10

mold fungi [8] = assay: miniboard test, molds (surface mildew) (Examples 8-12); settings: TABLE 2; […] active ingredients, pH 8.5-10.0, 5 weeks, 20° C., 100% R.H.; average of ten replicates
[9] = pH 2.5, read-out: concentration at which growth was inhibited
[10] = pH 5, read-out: concentration at which growth was inhibited
[11] = pH 7, read-out: concentration at which growth was inhibited
[12] = TABLES 5-7, […] active ingredients, pH 8.5-10.0, rated as in examples 9-10, average of ten replicates
[13] = TABLES 5-7, […] active ingredients, pH 8.5-10.0, rated as in examples 9-10
[14] = TABLES 3-4, […] active ingredients, pH 8.5-10.0, 3 weeks, 20° C., 100% R.H., average of ten replicates
[15] = TABLES 3-4, […] active ingredients, pH 8.5-10.0, 3 weeks, 20° C., 100% R.H.
[16] = pH 2.5, 15 days culture, single agents, read-out: concentration at which growth was inhibited
[17] = pH 5.0, 15 days culture, single agents, read-out: concentration at which growth was inhibited
[18] = pH 7.0, 15 days culture, single agents, read-out: concentration at which growth was inhibited
[19] = Example 5, Test 1, dry matter of wetting solution 1.5%
[20] = Example 5, Test 2, dry matter of wetting solution […]
[21] = TABLE 1, […] active ingredients, pH 8.5-10, 3 weeks, brackets not explained

O=C(O)c1ccccc1 [Benzoic acid]
MIC (Aureobasidium pullulans; [9]): 50 µg/mL (≈ 409 µM)
MIC (Aureobasidium pullulans; [10]): > 100 µg/mL
MIC (Aureobasidium pullulans; [11]): > 100 µg/mL

CCCCCCCCCC(=O)O [Na-caprinoate]
Growth of fungi, Freshly cut pine sapwood, Sapstain (score) (sapstain fungi [1]; [12]): 2.5
Growth of fungi, Freshly cut pine sapwood, Molds (score) (mold fungi [2]; [13]): 20

Na-isononanoate
Growth of fungi, Freshly cut pine sapwood, Sapstain (score) (sapstain fungi [1]; [14]): 20
Growth of fungi, Freshly cut pine sapwood, Molds (score) (mold fungi [2]; [15]): 20
synergism with trimethylcoco ammonium chloride (in words) (mold fungi [2]): quite obvious; also recorded: most obvious

CCCCCC(=O)O [Capronic acid]
pKa [3]: 4.83

C/C=C/C=C/C(=O)O [Sorbic acid]
MIC (Aureobasidium pullulans; [16]): 50 µg/mL (≈ 446 µM)
MIC (Aureobasidium pullulans; [17]): 100 µg/mL (≈ 892 µM)
MIC (Aureobasidium pullulans; [18]): > 100 µg/mL
pKa [3]: 4.77

CCCCCCCCCC(=O)O [Capric acid]
MIC (Aureobasidium pullulans; [16]): 50 µg/mL (≈ 290 µM)
MIC (Aureobasidium pullulans; [17]): 100 µg/mL (≈ 580 µM)
MIC (Aureobasidium pullulans; [18]): > 100 µg/mL
Grading points, Surface mildew (surface mildew): 14 points
Grading points, Sapstain [4]: 3.5 points

CCCCCCCC(=O)O [Na-caprylate]
Growth of fungi, Freshly cut pine sapwood, Sapstain (score) (sapstain fungi [1]; [12]): 10.5
Growth of fungi, Freshly cut pine sapwood, Molds (score) (mold fungi [2]; [13]): 20

CC(=O)Oc1ccccc1C(=O)O [Acetylsalicylic acid]
MIC (Aureobasidium pullulans; [9]): 25 µg/mL (≈ 139 µM)
MIC (Aureobasidium pullulans; [10]): > 100 µg/mL
MIC (Aureobasidium pullulans; [11]): > 1000 µg/mL

CCCCC(CC)C(=O)O (stereo not shown) [Na--2-ethylhexanoate, Na salt of 2-ethyl hexanoic acid]
Grade points, Sapstain, Treated side [5, 19]: 20 points
Grade points, Sapstain, Treated side [5, 20]: 16 points
Growth of fungi, Freshly cut pine sapwood, Sapstain (score) (sapstain fungi [6]): 20
Grade points, Mildew growth, Treated side [7]: 20 points
Growth of fungi, Sapstain (score) (sapstain fungi [1]; […] active ingredients): 10
Growth of fungi, Freshly cut pine sapwood, Sapstain (score) (sapstain fungi [1]; TABLE 1, […] active ingredients, pH 8.5-10, 3 weeks, 20° C., 100% R.H., average of 5 replicates, value without brackets): 20
Growth of fungi, Freshly cut pine sapwood, Sapstain (score), value in square brackets (sapstain fungi [1]; [21]): 2
control of sapstain (in words) (sapstain fungi [1]; […] a.i. solution): quite ineffective in controlling mold and stain fungi
Growth of fungi, Molds (score) (mold fungi [2]; […] active ingredients): 10
Growth of fungi, Freshly cut pine sapwood, Molds (surface mildew) (score), value in square brackets (mold fungi [2]; [21]): 2
control of mold growth (in words) (mold fungi [2]; […] a.i. solution): quite ineffective in controlling mold and stain fungi
synergism with trimethylcoco ammonium chloride (in words) (mold fungi [2]): most obvious
Growth of fungi, Freshly cut pine sapwood, Molds (surface mildew) (score) (mold fungi [8]): 20

CCCCC(CC)C(=O)O (stereo not shown) [2-ethyl hexanoic acid]
MIC (Aureobasidium pullulans; [9]): 50 µg/mL (≈ 347 µM)
MIC (Aureobasidium pullulans; [10]): > 100 µg/mL
MIC (Aureobasidium pullulans; [11]): > 1000 µg/mL
pKa [3]: 4.81

CCCCCCCCCCCC[N+](C)(C)C.[Cl-] [DMC, dodecyltrimethylammonium chloride]
MIC (Aureobasidium pullulans; [9]): 15 µg/mL
MIC (Aureobasidium pullulans; [10]): 15 µg/mL
MIC (Aureobasidium pullulans; [11]): 4 µg/mL
Grading points, Sapstain [4]: 1 points

Na-iso-octanoate
Growth of fungi, Freshly cut pine sapwood, Sapstain (score) (sapstain fungi [1]; [14]): 20
Growth of fungi, Freshly cut pine sapwood, Molds (score) (mold fungi [2]; [15]): 20
synergism with trimethylcoco ammonium chloride (in words) (mold fungi [2]): not as clear

CCCCCCC(=O)O [Na-heptanoate]
Growth of fungi, Freshly cut pine sapwood, Sapstain (score) (sapstain fungi [1]; [12]): 7
Growth of fungi, Freshly cut pine sapwood, Molds (score) (mold fungi [2]; [13]): 20

CCCCCCCC[N+](C)(C)CCCCCCCC.[Cl-] [Dioctyldimethylammonium chloride, dioctyldimethylammonium chloride]
synergism with Na-2-ethylhexanoate (in words) [4]: proved
Growth of fungi, Sapstain (score) (sapstain fungi [1]; […] active ingredients): 1
Growth of fungi, Molds (score) (mold fungi [2]; […] active ingredients): 1.5

CCCCCCCCCC[N+](C)(C)CCCCCCCCCC.[Cl-] [DDC, didecyldimethylammonium chloride]
Grade points, Sapstain, Treated side [5, 19]: 12 points
Grade points, Sapstain, Treated side [5, 20]: 5 points
synergism with Na-2-ethylhexanoate (in words) [4]: proved
Grade points, Mildew growth, Treated side [7]: 11 points

CCCCCCCCCCCC[N+](C)(C)Cc1ccccc1.[Cl-] [BAC, dodecylbenzyldimethylammonium chloride]
MIC (Aureobasidium pullulans; [9]): 50 µg/mL
MIC (Aureobasidium pullulans; [10]): 10 µg/mL
MIC (Aureobasidium pullulans; [11]): 2 µg/mL
Grading points, Surface mildew (surface mildew): 8.5 points and 4.5 points
Grading points, Sapstain [4]: 2 points and 1.5 points
synergism with Na-2-ethylhexanoate (in words) [4]: proved

CCCCCCCCCCCC[n+]1ccccc1 [DPC, dodecylpyridinium chloride]
Grading points, Surface mildew (surface mildew): 16 points
Grading points, Sapstain [4]: 3 points

Source: patent US4585795A, “Control agent for protecting timber against fungi employing a mixture of an organic carboxylic acid salt and quaternary ammonium salt” (priority 1982, dated 1986)
